In ChEMBL document CHEMBL1150443, “Synthesis and ion-binding properties of an immobilized bis-cysteine peptide” (Bioorg Med Chem Lett, 1992) one finds Log K, Activity and KNa data, which are given here for two compounds.

A short description of test [1]: Binding constant of the ion pair ( lithium picrate salt) to the peptide-matrix was calculated from the spectrophotometric determination of the free Na+ picrate salt after equilibration with the immobilized peptide in trifluoroethanol.
Test [2] in a line: Binding constant of the ion pair ( lithium picrate salt) to the peptide-matrix was calculated from the spectrophotometric determination of the free […] picrate salt after equilibration with the immobilized peptide in trifluoroethanol; NA=No affinity.
A short description of test [3]: Binding constant of the ion pair ( lithium picrate salt) to the peptide-matrix was calculated from the spectrophotometric determination of the free Li+ picrate salt after equilibration with the immobilized peptide in trifluoroethanol.
Test [4] is described as follows: Binding constant of the ion pair ( lithium picrate salt) to the peptide-matrix was calculated from the spectrophotometric determination of the free Li+ picrate salt after equilibration with the immobilized peptide in trifluoroethanol; NA=No affinity.
Test [5] can be described thus: Binding constant of the ion pair ( potassium picrate salt) to the peptide-matrix was calculated from the spectrophotometric determination of the free K+ picrate salt after equilibration with the immobilized peptide in trifluoroethanol; NA=No affinity.
Test [6] in a line: Binding constant of the ion pair ( sodium picrate salt) to the peptide-matrix was calculated from the spectrophotometric determination of the free Na+ picrate salt after equilibration with the immobilized peptide in trifluoroethanol.

The source made the active and inactive calls. No cut-off for these calls is given here.

`CC(=O)N[C@@H]1CSSC[C@@H](NC(C)=O)C(=O)N2CCC[C@@H]2C(=O)N[C@H](C(C)C)C(=O)N[C@H](C(N)=O)CSSC[C@@H](C(N)=O)NC(=O)[C@@H](C(C)C)NC(=O)[C@H]2CCCN2C1=O`: the results for the Log K in test [1] and in test [3] were 2.11 and 2.6, respectively. The outcome in test [2] was inactive.
As to `CC(=O)N[C@@H]1CSSC[C@@H](NC(C)=O)C(=O)N2CCC[C@@H]2C(=O)N[C@H](C(C)C)C(=O)N[C@H](C(=O)O)CSSC[C@@H](C(N)=O)NC(=O)[C@@H](C(C)C)NC(=O)[C@H]2CCCN2C1=O`, the result in test [4] and in test [5] was inactive. In test [6], the KNa is 5200 M⁻¹.
